Aqueous solubility, in vitro activity and in vivo activity data for two compounds are collected here from US9192568B2, “Formulations comprising jorumycin-, renieramycin-, safracin- or saframycin-related compounds for treating proliferative diseases” (Pharma Mar, S.A., priority 2005, dated 2015).

Each structure is given as a SMILES string.

The nature of one series: Aqueous solubility. Type of series: physicochemical. From the text:
These characteristics challenge the ordinary skills and conventional methodologies in this technology, particularly when it comes to the preparation of formulations of these compounds that are to be readily used for medical purposes. Such uses preferably rely on formulations whose characteristics include one or more of the following: biocompatibility, stability under ambient conditions, or under conditions that are as near to ambient conditions as possible, with a shelf life that is as long as possible, and easy reconstitutability to form reconstituted solutions that are as stable under ambient, or near ambient conditions, for as long as possible.

The test system of series [1] is solid and non-solid tumor cell lines. Conditions: cited from earlier work.
Series [2] has as its system xenografted human cell lines in mice, such as breast and prostate. Conditions: several xenografted human cell lines in mice; cited from earlier work.

Take `COc1c(C)cc2c(c1O)[C@@H]1[C@@H]3Cc4c(OC(C)=O)c(C)c5c(c4[C@H](CNC(=O)/C=C/c4cccc(C(F)(F)F)c4)N3[C@@H](O)[C@H](C2)N1C)OCO5` [PM00104]: the aqueous solubility entry in the series “Aqueous solubility” was “limited aqueous solubility”. Moreover, in series [1], the in vitro activity entry is “significant in vitro activity”. Besides, in series [2], the in vivo activity result was “significant in vivo activity”.

With `COc1c(C)cc2c(c1O)[C@@H]1[C@@H]3Cc4c(OC(C)=O)c(C)c5c(c4[C@H](COC(=O)/C=C/c4ccccc4)N3[C@@H](O)[C@H](C2)N1C)OCO5` [PM00121], the aqueous solubility result in the series “Aqueous solubility” is given as “limited aqueous solubility”.
